Assay results reported in ChEMBL document CHEMBL4402557, “Nidufexor (LMB763), a Novel FXR Modulator for the Treatment of Nonalcoholic Steatohepatitis” (J Med Chem, 2020).
Values after ≈ are worked out from the molar mass of the structure shown. Active and inactive are the calls of the source. No cut-off for these calls is given here.

Assays:
Mus musculus [1] = assay: Anti Steato-hepatitic activity in STZ/HFD induced oral dosed C57BL/6J mouse STAM model assessed as reduction in inflammatory cell infiltration administered via oral gavage once daily for 3 weeks and measured on 9 week by H and E staining based assay; type: functional, organism-based
[2] = Terminal half life in orally dosed rat; type: ADME, organism-based; conditions: in vivo, po, read-out: beta t1/2 (converted)
[3] = Half life in Wistar rat at 3 mg/kg, iv; type: ADME, organism-based; conditions: in vivo
[4] = Volume of distribution at steady state in rabbit at 5 mg/kg, iv; type: ADME, organism-based, Oryctolagus cuniculus; conditions: in vivo, read-out: Vdss
[5] = Clearance in mouse at 3 mg/kg, iv; type: ADME, organism-based; conditions: in vivo
Mus musculus [6] = assay: Anti Steato-hepatitic activity in STZ/HFD induced C57BL/6J mouse STAM model assessed as reduction in fibrosis at 3 to 30 mg/kg, po administered via oral gavage once daily for 3 weeks and measured on 9 week by Picro-Sirius Red staining based assay; type: functional, organism-based
[7] = AUC in Wistar rat brain at 10 mg/kg, po; type: ADME, organism-based
[8] = Cmax in Wistar rat at 3 mg/kg, po; type: ADME, organism-based; design: dose 3 mg/kg, route oral; conditions: in vivo
[9] = Permeability of the compound by PAMPA; type: ADME
[10] = Volume of distribution at steady state in mouse at 3 mg/kg, iv; type: ADME, organism-based; conditions: in vivo, read-out: Vdss
[11] = AUC in Wistar rat at 100 mg/kg, po; type: ADME, organism-based; conditions: in vivo
[12] = Metabolic stability in rat liver microsomes assessed as hepatic extraction ratio; type: ADME, Microsome; conditions: read-out: ERH
Mus musculus [13] = organism: Mus musculus; assay: Anti Steato-hepatitic activity in C57BL/6J mouse STAM model assessed as change in Map3k13 gene level in liver; type: functional, organism-based
[14] = Cmax in Wistar rat at 30 mg/kg, po; type: ADME, organism-based; design: dose 30 mg/kg, route oral; conditions: in vivo
[15] = Oral bioavailability in Wistar rat at 10 mg/kg in presence of PEG 300/D5W(3:1); type: ADME, organism-based; conditions: in vivo
[16] = target: T1, Bile acid receptor (Rattus norvegicus) (UniProt Q62735); assay: Agonist activity at FXR in rat primary hepatocytes assessed as increase in BSEP mRNA level incubated for 24 hrs by qRT-PCR analysis relative to DMSO; type: cell-based
T1 sequence (whole entry): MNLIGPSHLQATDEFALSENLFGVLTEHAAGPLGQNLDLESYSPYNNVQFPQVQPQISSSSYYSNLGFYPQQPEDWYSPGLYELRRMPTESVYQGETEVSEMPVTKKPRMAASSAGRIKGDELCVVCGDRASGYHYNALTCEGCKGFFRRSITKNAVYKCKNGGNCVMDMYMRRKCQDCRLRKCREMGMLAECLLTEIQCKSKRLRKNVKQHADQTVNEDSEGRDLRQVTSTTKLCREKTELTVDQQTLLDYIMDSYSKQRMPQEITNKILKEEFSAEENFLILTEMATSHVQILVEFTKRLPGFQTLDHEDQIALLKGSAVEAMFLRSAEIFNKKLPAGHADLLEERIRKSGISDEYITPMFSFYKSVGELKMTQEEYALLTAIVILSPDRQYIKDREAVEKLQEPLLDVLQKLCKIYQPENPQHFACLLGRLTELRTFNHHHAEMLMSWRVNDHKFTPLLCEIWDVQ

[17] = target: T1, Bile acid receptor (Rattus norvegicus); assay: Agonist activity at FXR in rat primary hepatocytes assessed as increase in SHP mRNA level incubated for 24 hrs by qRT-PCR analysis relative to tropifexor; type: cell-based
[18] = Oral bioavailability in dog at 2 mg/kg; type: ADME, organism-based, Canis lupus familiaris; conditions: in vivo
[19] = Oral bioavailability in Wistar rat at 10 mg/kg; type: ADME, organism-based; conditions: in vivo
[20] = target: T2, Peroxisome proliferator-activated receptor gamma (Homo sapiens, UniProt P37231); assay: Agonist activity at GAL4-fused PPARgamma (unknown origin) expressed in HEK293T cells incubated for 24 by BrightGlo reagent based assay; type: cell-based
T2 sequence (P37231 whole entry): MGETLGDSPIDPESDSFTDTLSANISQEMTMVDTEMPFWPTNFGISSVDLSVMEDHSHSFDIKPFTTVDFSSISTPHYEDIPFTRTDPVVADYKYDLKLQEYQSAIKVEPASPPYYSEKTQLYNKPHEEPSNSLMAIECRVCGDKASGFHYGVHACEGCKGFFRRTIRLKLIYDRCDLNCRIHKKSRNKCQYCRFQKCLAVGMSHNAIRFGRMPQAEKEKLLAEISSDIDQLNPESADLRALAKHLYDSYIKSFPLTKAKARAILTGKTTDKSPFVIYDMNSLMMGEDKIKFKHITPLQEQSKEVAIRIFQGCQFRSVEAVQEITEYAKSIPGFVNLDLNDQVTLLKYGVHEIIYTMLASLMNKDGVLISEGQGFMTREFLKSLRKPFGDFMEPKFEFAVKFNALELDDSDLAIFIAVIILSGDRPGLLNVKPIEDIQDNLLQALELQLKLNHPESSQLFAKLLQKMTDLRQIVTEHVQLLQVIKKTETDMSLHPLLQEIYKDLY

Rattus norvegicus [21] = assay: In-vivo agonist activity at FXR in orally dosed Han Wistar rat assessed as upregulation of BSEP mRNA level in liver administered via oral gavage once daily for 14 days measured post last dose by qRT-PCR analysis; type: functional, organism-based
[22] = Oral bioavailability in Wistar rat at 3 mg/kg; type: ADME, organism-based; conditions: in vivo
[23] = Half life in rabbit at 5 mg/kg, iv; type: ADME, organism-based, Oryctolagus cuniculus; conditions: in vivo
Estrogen receptor = target: T3, Estrogen receptor (Homo sapiens, UniProt P03372); assay: Agonist activity at GAL4-fused ERalpha (unknown origin) expressed in HEK293T cells incubated for 24 by BrightGlo reagent based assay; type: cell-based
T3 sequence (P03372 whole entry): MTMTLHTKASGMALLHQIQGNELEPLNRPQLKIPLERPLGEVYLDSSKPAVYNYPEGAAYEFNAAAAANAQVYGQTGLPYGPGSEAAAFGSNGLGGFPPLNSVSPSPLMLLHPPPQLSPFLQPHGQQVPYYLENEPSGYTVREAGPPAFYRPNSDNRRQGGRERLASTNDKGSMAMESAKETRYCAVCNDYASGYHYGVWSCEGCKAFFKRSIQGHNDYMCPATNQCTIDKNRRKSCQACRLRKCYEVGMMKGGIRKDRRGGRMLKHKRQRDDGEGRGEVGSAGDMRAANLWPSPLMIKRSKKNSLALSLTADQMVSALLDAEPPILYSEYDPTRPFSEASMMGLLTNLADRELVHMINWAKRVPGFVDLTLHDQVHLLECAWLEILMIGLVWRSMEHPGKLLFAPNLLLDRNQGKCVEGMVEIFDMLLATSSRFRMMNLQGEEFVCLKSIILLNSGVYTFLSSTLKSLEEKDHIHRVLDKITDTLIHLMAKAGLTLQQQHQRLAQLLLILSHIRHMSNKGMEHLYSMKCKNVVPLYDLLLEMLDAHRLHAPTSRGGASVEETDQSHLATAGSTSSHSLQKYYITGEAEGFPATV

[24] = AUC in Wistar rat at 30 mg/kg, po; type: ADME, organism-based; conditions: in vivo
[25] = Solubility of compound in pH 6.5 FASSIF at 2 mg measured for 5 to 60 mins by UV spectroscopic method; type: physicochemical
Rattus norvegicus [26] = assay: In-vivo agonist activity at FXR in orally dosed Han Wistar rat assessed as repression of CYP8b1 mRNA level in liver administered via oral gavage once daily for 14 days measured post last dose by qRT-PCR analysis; type: functional, organism-based

half-life [2]: 13 h | half-life [3]: 3 h | Vd [4]: 0.6 L/kg | clearance [5]: 9.8 mL/min/kg | AUC [7]: 1.11 µM·h | Cmax [8]: 4.5 µM | permeability [9]: 94% | Vd [10]: 0.9 L/kg | AUC [11]: 399 µM·h | hepatic extraction ratio [12]: < 0.18 | Cmax [14]: 28.1 µM | bioavailability [15]: 51% | Activity [17]: 65% | bioavailability [18]: 80% | bioavailability [19]: 52% | EC50 [20]: > 10 µM | bioavailability [22]: 63% | half-life [23]: 4.4 h | EC50 (Estrogen receptor): > 10 µM | AUC [24]: 76.5 µM·h | solubility [25]: 3 µM (≈ 1.46 µg/mL)
SMILES: Cn1nc(C(=O)N(Cc2ccccc2)Cc2ccc(C(=O)O)cc2)c2c1-c1cc(Cl)ccc1OC2 [NIDUFEXOR]
Activity (Mus musculus [1]): Dose-dependent effect | Activity (Mus musculus [6]): Active | Activity (Mus musculus [13]): Active | fold change (FC) [16]: 24 | Activity (Rattus norvegicus [21]): Dose-dependent effect | Activity (Rattus norvegicus [26]): Active
